Measured values reported in patent publication US7169592B2, “Producing optically active amino compounds” (Kaneka Corporation, priority 1997, dated 2007).
“And” between values parts separate entries of the source, which are not always exact repeats. Identical values can stand only once. Like-named read-outs stand apart in the source and are kept apart here. Marks after values point to notes of the source that are not given here.

Assays:
[1] = tested on: Arthrobacter species KNK168 strain; test: Inducer added during culture; (R)-DMA formation by the separated cells; assay type: cell-based; details: substance added to medium as inducer; reaction 30° C., 20 hours, 1% 1-(3,4-dimethoxyphenyl)-2-propanone, 1% (RS)-1-methylpropylamine
Description: When culturing the Arthrobacter species KNK168 strain by the method described in Example 1, (RS)-1-methylpropylamine, (RS)-1-methylbutylamine, (RS)-3-amino-2,2-dimethylbutane, (RS)-2-amino-1-butanol, or (RS)-1-phenylethylamine was added to the medium in place of (R)-1-(3,4-dimethoxyphenyl)-2-aminopropane ((R)-DMA). The cells were separated from the culture, and the reaction was carried out at 30° C. for 20 hours using the above cells in a reaction mixture containing 1% 1-(3,4-dimethoxyphenyl)-2-propanone and 1% (RS)-1-methylpropylamine.

[2] = tested on: Arthrobacter species KNK168 strain; test: Amino group donors in whole-cell transamination of 1-(3,4-dimethoxyphenyl)-2-propanone; assay type: cell-based; details: for (R)-DMA Formed: 1% amino group donor, 1% 1-(3,4-dimethoxyphenyl)-2-propanone, 0.1% Triton X-100, pH 8.5, 35° C., 20 hours; for Function as amino group donor (in words): whole cells
Description: The cultured cells were harvested by centrifugation, and the harvested cells were suspended in a reaction mixture (pH 8.5) containing 1% 1-(3,4-dimethoxyphenyl)-2-propanone, 0.1% Triton X-100, and 1% an amino group donor shown in Table 5. The mixture was reacted at 35° C. for 20 hours.

[3] = tested on: Transaminase of Present Invention (purified enzyme); test: Reactivity of purified transaminase to amino compounds (amino group donors) with pyruvic acid as acceptor; assay type: biochemical, Arthrobacter sp. KNK168; set-up: Substrate Specificity, relative activity: concentration or dose not given beside the values; details: for Substrate Specificity, relative activity: purified enzyme, pyruvic acid as amino group acceptor; for Relative Activity: amino compound 40 mM in substrate solution, pyruvic acid acceptor, pH 8.3, 30° C., 1 hour, (R)-1-phenylethylamine = 100
Description: (§1) The differences with the ω-amino acid transaminase derived from Pseudomonas sp. F-1 (Agric. Biol. Chem., 42, 2363–2367 (1978), Agric. Biol. Chem., 43, 1043–1048 (1979), J. Biol. Chem., 258, 2260–2265 (1983)) which have been well studied among the ω-amino acid transaminases, and with the benzylamine transaminase of Okada et al. (Japanese Patent Laid-Open No. Hei 6-178685) are summarized and shown in Table 2. In a case of the transaminase reaction in the present invention, the data of the purified enzyme are used, and in cases of those by other two enzymes, the data of the purified enzymes which are disclosed in each of the literature publication and laid-open patent publication are used. Pyruvic acid is used as an amino group acceptor in all cases.
Using the purified enzyme protein obtained in Example 9, reactivities to various amino compounds when using pyruvic acid as an amino acceptor were evaluated. A 150 μl solution of the purified enzyme protein solution diluted ten-folds was added to a 150 μl substrate solution [0.1 M potassium phosphate buffer (pH 8.3), 40 mM pyruvic acid, 0.1 mM pyridoxal phosphate, and 40 mM various amino compounds]. The components were reacted at 30° C. for 1 hour. The reaction tube was transferred into boiling water to stop the reaction, and thereafter, a part of the reaction mixture was diluted five-folds. Ten μl 0.1 M boric acid buffer (pH 8.0) and a 20 μl ethanol solution of 80 mM 4-fluoro-7-nitro-2,1,3-benzoxadiazole (NBD-F) were added to the 10 μl above-mentioned diluted reaction mixture. The resulting mixture was reacted at 60° C. for 1 minute, and thereafter, the resulting mixture was ice-cooled, and 460 μl 5 mM HCl was added thereto. This reaction mixture was analyzed by high-performance liquid chromatography using a fine pack C18-5 column (manufactured by Nippon Bunko) I and using 0.1 M potassium phosphate buffer (pH 6.5) and CH3CN (90:10) as an eluent to detect formation of NBD-Alanine with an excitation wavelength of 470 nm and a detection wave of […]. The results thereof are shown in Table 8 in terms of relative activity in the case of using […] as a substrate.

[4] = tested on: transaminase (intracellular enzyme); test: Activity of the transaminase (intracellular enzyme) on typical substrates of ω-aminotransferases; assay type: biochemical, Arthrobacter sp. KNK168
[5] = molecular target: T1, ω-amino acid transaminase (Pseudomonas putida, UniProt P28269); details: purified enzyme, literature; pyruvic acid as amino group acceptor; cited from earlier work
T1 sequence (P28269 1-449): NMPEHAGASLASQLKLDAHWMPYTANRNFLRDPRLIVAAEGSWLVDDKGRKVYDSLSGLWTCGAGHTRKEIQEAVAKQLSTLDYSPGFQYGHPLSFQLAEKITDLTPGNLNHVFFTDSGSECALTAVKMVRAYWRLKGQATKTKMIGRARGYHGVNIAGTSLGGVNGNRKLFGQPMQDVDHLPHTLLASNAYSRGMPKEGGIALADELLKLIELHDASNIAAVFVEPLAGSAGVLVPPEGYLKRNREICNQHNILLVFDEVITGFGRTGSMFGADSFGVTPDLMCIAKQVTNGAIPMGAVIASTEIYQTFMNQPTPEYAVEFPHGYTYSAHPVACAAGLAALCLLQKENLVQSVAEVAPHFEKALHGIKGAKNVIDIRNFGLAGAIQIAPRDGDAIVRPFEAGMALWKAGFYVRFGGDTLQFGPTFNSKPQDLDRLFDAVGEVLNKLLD

[6] = tested on: benzylamine transaminase of Okada et al.; details: cited from earlier work; for Substrate Specificity, relative activity: purified enzyme, laid-open patent publication, pyruvic acid as amino group acceptor
[7] = tested on: Transaminase of Present Invention (purified enzyme); test: Influence of reaction inhibitors on purified transaminase; assay type: biochemical, Arthrobacter sp. KNK168; details: for Relative activity with inhibitor: inhibitor 1 mM, without addition = 100
Description: as §1

[8] = tested on: benzylamine transaminase of Okada et al.; details: without addition = 100, cited from earlier work
[9] = molecular target: T1, ω-amino acid transaminase; details: inhibitor 1 mM; without addition = 100; cited from earlier work
[10] = tested on: Transaminase of Present Invention; test: Usability as amino group donor, transaminase of present invention; assay type: biochemical, Arthrobacter
Description: Further, the transaminase derived from Arthrobacter which can be used in the present invention is different from the above-mentioned enzyme derived from Brevibacterium in many other aspects.

[11] = amino group acceptor 2-ketoglutaric acid, (R)-1-phenylethylamine/pyruvic acid = 100 (control)

SMILES: CCCC(C)N (racemic) [(RS)-1-Methylbutylamine]
- (R)-DMA Formed [1]: 13.0%
- (R)-DMA Formed [2]: 54.7% and 56.9%
- Function as amino group donor (in words) [2]: functioned as amino group donors

SMILES: CCC(C)N (racemic) [(RS)-1-Methylpropylamine]
- (R)-DMA Formed [1]: 22.3%
- (R)-DMA Formed [2]: 28.2%
- Function as amino group donor (in words) [2]: functioned as amino group donors

SMILES: CC(N)c1ccccc1 (racemic) [(RS)-1-Phenylethylamine]
- (R)-DMA Formed [1]: 8.0%
- (R)-DMA Formed [2]: 61.3%
- Function as amino group donor (in words) [2]: functioned as amino group donors

SMILES: CCC(N)CO (racemic) [(RS)-2-Amino-1-butanol]
- (R)-DMA Formed [1]: 12.9%

SMILES: CC(N)C(C)(C)C (racemic) [(RS)-3-Amino-2,2-dimethylbutane]
- (R)-DMA Formed [1]: 18.6%

SMILES: NCCCC(=O)O [4-Aminobutyric acid]
- Action of the transaminase on the substance (in words) [3]: does not act on
- Substrate Specificity, relative activity [3]: 0%
- Relative Activity [4, 11]: 0%
- Substrate Specificity, relative activity [5]: 40%

SMILES: COc1ccc(C[C@@H](C)N)cc1OC [(R)-DMA, (R)-1-(3,4-dimethoxyphenyl)-2-aminopropane]
- Relative Activity [3]: 30%
- (R)-DMA Formed [1]: 0.9%

SMILES: NCc1ccccc1 [Benzylamine]
- Relative Activity [3]: 0.8%
- Substrate Specificity, relative activity [3]: 0.8%
- Substrate Specificity, relative activity [5]: 45%
- Action of benzylamine transaminase on the substance (in words) ([6]; in the presence of pyruvic acid): strongly acts on
- Substrate Specificity, relative activity [6]: 100%

SMILES: O=S(=O)([O-])[O-].[Cu+2] [CuSO4]
- Relative activity with inhibitor [7]: 44%
- Relative activity with inhibitor ([8]; inhibitor 0.5 mM): 5%

SMILES: CC(C)(S)[C@@H](N)C(=O)O [D-Penicillamine]
- Relative activity with inhibitor [7]: 93%
- Relative activity with inhibitor ([8]; inhibitor 1 mM): 0%

SMILES: NO [Hydroxylamine]
- Influence of reaction inhibitor on the transaminase (in words) [7]: affected only a little
- Relative activity with inhibitor [7]: 17%
- Relative activity with inhibitor [9]: 0%
- Relative activity with inhibitor ([8]; inhibitor 0.1 mM): 30%

SMILES: NNc1ccccc1 [Phenylhydrazine]
- Influence of reaction inhibitor on the transaminase (in words) [7]: affected only a little
- Relative activity with inhibitor [7]: 82%
- Relative activity with inhibitor ([8]; inhibitor 1 mM): 27%

SMILES: NCCCCN [Putrescine]
- Action of the transaminase on the substance (in words) [3]: does not act on
- Substrate Specificity, relative activity [3]: 0%
- Relative Activity [4, 11]: 0%
- Substrate Specificity, relative activity [5]: 55%
- Substrate Specificity, relative activity [6]: 0%

SMILES: Cl.N [ammonium chloride]
- Amino Group Donor (usable or not) [10]: cannot be used as an amino group donor

SMILES: N[C@@H](CC(=O)O)C(=O)O [aspartic acid]
- Amino Group Donor (usable or not) [10]: cannot be used as an amino group donor

SMILES: N[C@@H](CCC(=O)O)C(=O)O [glutamic acid]
- Amino Group Donor (usable or not) [10]: cannot be used as an amino group donor

SMILES: CCCCN [n-Butylamine]
- Action of the transaminase on the substance (in words) [3]: does not act on
- Substrate Specificity, relative activity [3]: 0%
- Substrate Specificity, relative activity [5]: 60%
- Substrate Specificity, relative activity [6]: 0%

SMILES: O=C(O)c1cc[c]([Hg][Cl])cc1 [p-Chloromercuribenzoic acid]
- Relative activity with inhibitor [7]: 53%
- Relative activity with inhibitor [9]: 100%
- Relative activity with inhibitor ([8]; inhibitor 0.1 mM): 9%

SMILES: NCCC(=O)O [β-Alanine]
- Action of the transaminase on the substance (in words) [3]: does not act on
- Substrate Specificity, relative activity [3]: 0* %
- Activity on the substance as amino group donor (in words) [4]: does not act on
- Relative Activity ([4]; amino group acceptor pyruvic acid, (R)-1-phenylethylamine = 100 (control)): 0%
- Substrate Specificity, relative activity [5]: 100* %
- Substrate Specificity, relative activity [6]: 0* %

SMILES: NCCc1ccccc1 [β-Phenethylamine]
- Substrate Specificity, relative activity [3]: 0%
- Substrate Specificity, relative activity [5]: 54%
- Substrate Specificity, relative activity [6]: 9%
